Laboratory results reported in patent publication US20230127898A1, “HEPATITIS B CAPSID ASSEMBLY MODULATORS” (Venatorx Pharmaceuticals, Inc., priority 2020, published 2023).
pEC50: −log10 of the molar value. Like-named read-outs stand apart in the source and are kept apart here.

Experiments:
[1] = In vitro cytotoxicity assay (MTT cell viability) in HepG2 cells; assay type: cell-based; settings: human
Experimental: To evaluate antiviral selectivity, the cytotoxic activity of each compound was determined using a standard cell viability assay performed on the parental HepG2 cell line. Cell viability was determined by measuring the conversion of 3-(4,5-dimethylthiazol-2-yl)-2,5-diphenyltetrazolium bromide (MTT) to the insoluble formazan salt crystal that occurs in live cells. Briefly, HepG2 cells were seeded in 96-well plates at a density of 20,000 cells per well in EMEM+10% FBS (complete growth medium) and allowed to adhere overnight in a 37° C., 5% CO2 humidified incubator. The next day, test agents were prepared by performing 8 half-log10 serial dilutions in 100% DMSO at 200×the final desired concentration in the assay. Compounds were tested over a range of concentrations from 30 μM to 1.0 nM in the assay. HepG2 cells were incubated in the presence of various concentrations of CAMs for 7 days in a 37° C., 5% CO2 humidified incubator. At the completion of the 7-day incubation period, MTT reagent was added to each well and the mixture was incubated for an additional 3-4 hours. At the completion of the incubation period, all wells were aspirated to remove the culture medium. The formazan crystals were solubilized from the cell monolayers with 100% DMSO. Plates were briefly mixed on an orbital shaker and absorbance was measured at 492 nm using a Perkin-Elmer EnVision multi-label plate reader. All absorbance values were converted to a percentage of the signal obtained from the vehicle treated controls. Absorbance values at 492 nm are directly proportional to the number of viable cells present in the sample. A CC50 value (cytotoxic concentration that results in loss of 50% cell viability) was calculated from the dose-response curve by 4-parameter, non-linear regression analysis using the GraphPad Prism software. The positive control compound, staurosporine, reduced the viability of HepG2 cells in a dose-dependent manner (CC50=100 nM).

[2] = system: HBV replication in HepAD38 cells; assay: In vitro antiviral assay: extracellular HBV DNA by QPCR in HepAD38 cells; assay type: cell-based, HBV (genotype D, serotype ayw); settings: Hepatitis B virus, 168 h
Experimental: The anti-HBV activity of the Capsid Assembly Modulators (CAMs) was evaluated in a cell based assay utilizing the human hepatoma cell line HepAD38 (Ladner, S K., et al., 1998). HepAD38 cells were derived from the parental line, HepG2, that were stably transfected with a construct containing an HBV genome (genotype D, serotype ayw) under the control of a tetracycline repressible CMV promoter. Upon removal of tetracycline, viral pre-genomic RNA (pgRNA) and mRNAs are expressed and infectious viral particles are assembled and secreted into the culture medium providing a reliable, robust system to measure multiple steps of the HBV life cycle. Disruption of capsid formation results in reduced levels of DNA-containing virus particles that are released into the culture supernatant. To quantify the effect of CAMs on HBV replication, we developed a sensitive QPCR-based assay that measures extracellular HBV DNA levels upon treatment of HepAD38 cells with various concentrations of test compounds.
HepAD38 cells were maintained in DMEM/F12 medium containing 10% FBS, 400 μg/mL G418 and 0.3 μg/mL tetracycline (tet+media) to maintain repression of HBV replication. To evaluate each compound, HepAD38 cells were seeded into 24-well collagen coated culture plates (Corning BioCoat) at a density of 200,000 cells per well in 1 mL of medium without tetracycline (tet-media) and allowed to adhere overnight at 37° C., 5% CO2 in a humidified incubator. The following day, media was refreshed and a dose range of each compound was prepared by performing 1 log10 serial dilutions in 100% DMSO at 200×the desired assay concentration. Dilutions were then added to the cells resulting in a final dose range of 1 μM to 10 pM and the plates were returned to the incubator. Following 7 days of incubation, culture supernatants were harvested and HBV DNA levels were evaluated by QPCR and compared to the vehicle treated control wells (i.e. DMSO alone).
To quantify HBV DNA levels, cell culture supernatants were diluted 1:10 in sterile, nuclease-free water (Gibco). The diluted supernatants were subsequently added to a PCR master mix containing 1×Roche Light Cycler Master Mix, 0.5 μM forward primer, 0.5 μM reverse primer, 0.2 μM Roche Universal Probe Library Probe 25. The volume was brought to 20 μL with nuclease-free water and amplification of the HBV target sequence was performed using a Roche LightCycler 480 QPCR instrument. PCR extended out to 45 cycles with each cycle consisting of a denaturation step at 95° C. for 10 sec., followed by an annealing step at 60° C. for 10 sec. and a brief extension step at 72° C. for 1 sec.
Extracellular HBV DNA levels, expressed in copies/mL, were determined by comparison to a standard curve (10^2-10^9 copies/mL) using the Roche LightCycler analysis software. These values were subsequently converted to percent inhibition of HBV replication by dividing the HBV DNA levels in the experimental samples with those obtained from the vehicle control (˜1-2×10^5 copies/mL). Potency, expressed as an EC50(the effective concentration required to inhibit 50% of HBV replication), was calculated from the dose-response curve using a 4-parameter non-linear regression analysis (GraphPad Prism). The nucleoside analog inhibitor entecavir was used as a positive control to validate each assay run. The EC50 value of entecavir in the HepAD38 assay was 0.5 nM, as previously reported in the literature.

HBV = settings: Phase 1b clinical trial, 600 mg bid dosing for 29 days; cited from earlier work
[3] = 7 days incubation, read-out: Anti-HBV EC50

SMILES | CC50 at 7 days [1] [µM] | pEC50 [2, 3] | pEC50 ([2]; positive control, 7 days, read-out: EC50 in the HepAD38 assay) | CC50 at 7 days ([1]; positive control, HepG2 cells, 7 days, MTT, read-out: CC50 (viability of HepG2 cells)) [µM] | reduction in HBV DNA (HBV) [log 10]
Cc1c2c(c(C(=O)Nc3ccc(F)c(F)c3)n1C)CCC(C)NC2=O (centres unmarked) [Example 48, N-(3,4-difluorophenyl)-2,3,6-trimethyl-4-oxo-2,4,5,6,7,8-hexahydropyrrolo[3,4-c]azepine-1-carboxamide] | > 30 | 6.00 to 6.30 |  |  | 
Cc1c2c(c(C(=O)Nc3ccnc(F)c3)n1C)CCC(C)(C)NC2=O [Example 7, N-(2-fluoropyridin-4-yl)-2,3,6,6-tetramethyl-4-oxo-2,4,5,6,7,8-hexahydropyrrolo[3,4-c]azepine-1-carboxamide] | > 30 | 6.30 to 7.30 |  |  | 
Cc1c2c(c(C(=O)Nc3cc(F)c(F)c(F)c3)n1C)CCC(C)(C)NC2=O [Example 5, 2,3,6,6-tetramethyl-4-oxo-N-(3,4,5-trifluorophenyl)-2,4,5,6,7,8-hexahydropyrrolo[3,4-c]azepine-1-carboxamide] | > 30 | < 6.00 |  |  | 
Cc1c2c(c(C(=O)Nc3ccc(F)c(C(F)F)c3)n1C)CCC(C)(C)NC2=O [Example 12, N-(3-(difluoromethyl)-4-fluorophenyl)-2,3,6,6-tetramethyl-4-oxo-2,4,5,6,7,8-hexahydropyrrolo[3,4-c]azepine-1-carboxamide] | > 30 | > 7.30 |  |  | 
Cc1c2c(c(C(=O)Nc3cccc(Cl)c3)n1C)CCC(C)(C)NC2=O [Example 8, N-(3-chlorophenyl)-2,3,6,6-tetramethyl-4-oxo-2,4,5,6,7,8-hexahydropyrrolo[3,4-c]azepine-1-carboxamide] | > 30 | 6.30 to 7.30 |  |  | 
Cc1cc(NC(=O)c2c3c(c(C)n2C)C(=O)NC(C)(C)CC3)ccc1F [Example 4, N-(4-fluoro-3-methylphenyl)-2,3,6,6-tetramethyl-4-oxo-2,4,5,6,7,8-hexahydropyrrolo[3,4-c]azepine-1-carboxamide] | > 30 | > 7.30 |  |  | 
CCn1c(C)c2c(c1C(=O)Nc1ccc(F)c(C)c1)CCC(C)(C)NC2=O [Example 3, 2-ethyl-N-(4-fluoro-3-methylphenyl)-3,6,6-trimethyl-4-oxo-2,4,5,6,7,8-hexahydropyrrolo[3,4-c]azepine-1-carboxamide] | > 30 | > 7.30 |  |  | 
Cc1cc(F)cc(NC(=O)c2c3c(c(C)n2C)C(=O)NC(C)(C)CC3)c1 [Example 11, N-(3-fluoro-5-methylphenyl)-2,3,6,6-tetramethyl-4-oxo-2,4,5,6,7,8-hexahydropyrrolo[3,4-c]azepine-1-carboxamide] | > 30 | > 7.30 |  |  | 
Cc1cc(NC(=O)c2c3c(C)c(C)[nH]c(=O)c3c(C)n2C)ccc1F [Example 45, N-(4-fluoro-3-methylphenyl)-2,3,6,7-tetramethyl-4-oxo-4,5-dihydro-2H-pyrrolo[3,4-c]pyridine-1-carboxamide] | 5 to 30 | 6.00 to 6.30 |  |  | 
Cc1c(C(=O)Nc2ccc(F)c(F)c2)c2c(n1C)C(=O)NC(C)(C)CC2 [Example 2, N-(3,4-difluorophenyl)-1,2,6,6-tetramethyl-8-oxo-1,4,5,6,7,8-hexahydropyrrolo[2,3-c]azepine-3-carboxamide] | 5 to 30 | 6.30 to 7.30 |  |  | 
C=C1[C@H](CO)[C@@H](O)C[C@@H]1n1cnc2c(=O)[nH]c(N)nc21 [entecavir, reference compound] |  |  | 9.30 |  | 
Cc1cccc(NC(=O)c2c3c(c(C)n2C)C(=O)N[C@@H](C)C3)c1F [Example 47, (S)-N-(2-fluoro-3-methylphenyl)-2,3,6-trimethyl-4-oxo-4,5,6,7-tetrahydro-2H-pyrrolo[3,4-c]pyridine-1-carboxamide] | > 30 | 6.00 to 6.30 |  |  | 
Cc1cc(NC(=O)c2c3c(n(C)c2C)C(=O)NC(C)CC3)ccc1F (centres unmarked) [Example 25, N-(4-fluoro-3-methylphenyl)-1,2,6-trimethyl-8-oxo-1,4,5,6,7,8-hexahydropyrrolo[2,3-c]azepine-3-carboxamide] | > 30 | > 7.30 |  |  | 
Cc1c2c(c(C(=O)Nc3cccc(C(F)F)c3)n1C)CCC(C)(C)NC2=O [Example 9, N-(3-(difluoromethyl)phenyl)-2,3,6,6-tetramethyl-4-oxo-2,4,5,6,7,8-hexahydropyrrolo[3,4-c]azepine-1-carboxamide] | > 30 | 6.30 to 7.30 |  |  | 
CN[C@@H]1C[C@H]2O[C@@](C)([C@@H]1OC)n1c3ccccc3c3c4c(c5c6ccccc6n2c5c31)C(=O)NC4 [staurosporine, reference compound] |  |  |  | 0.1 | 
Cc1cc(NC(=O)c2c3c(c(C)n2C)C(=O)NC(C)C3C)ccc1F (centres unmarked) [Example 23, N-(4-fluoro-3-methylphenyl)-2,3,6,7-tetramethyl-4-oxo-4,5,6,7-tetrahydro-2H-pyrrolo[3,4-c]pyridine-1-carboxamide] | > 30 | > 7.30 |  |  | 
Cc1cc(NC(=O)c2c3c(c(C)n2C)C(=O)NC(C)(C)CC3)cnc1F [Example 6, N-(6-fluoro-5-methylpyridin-3-yl)-2,3,6,6-tetramethyl-4-oxo-2,4,5,6,7,8-hexahydropyrrolo[3,4-c]azepine-1-carboxamide] | > 30 | < 6.00 |  |  | 
Cc1ccc(F)c(NC(=O)c2c3c(c(C)n2C)C(=O)NC(C)(C)CC3)c1 [Example 10, N-(2-fluoro-5-methylphenyl)-2,3,6,6-tetramethyl-4-oxo-2,4,5,6,7,8-hexahydropyrrolo[3,4-c]azepine-1-carboxamide] | > 30 | > 7.30 |  |  | 
O=C(Nc1cc(F)c(F)c(F)c1)c1ccc(F)c(S(=O)(=O)N2CCC(O)CC2)c1 [NVR 3-778] |  |  |  |  | −1.7
Cc1cc(NC(=O)c2c3c(c(C)n2C)C(=O)N[C@@H](C)C3)ccc1F [Example 46, (S)-N-(4-fluoro-3-methylphenyl)-2,3,6-trimethyl-4-oxo-4,5,6,7-tetrahydro-2H-pyrrolo[3,4-c]pyridine-1-carboxamide] | > 30 | > 7.30 |  |  | 
Cc1cc(NC(=O)c2c3c(c(C)n2C)C(=O)NC(C)CC3)ccc1F (centres unmarked) [Example 24, N-(4-fluoro-3-methylphenyl)-2,3,6-trimethyl-4-oxo-2,4,5,6,7,8-hexahydropyrrolo[3,4-c]azepine-1-carboxamide] | > 30 | > 7.30 |  |  | 
C=C1c2c(c(C)n(C)c2C(=O)Nc2ccc(F)c(C)c2)C(=O)NC1C (centres unmarked) [Example 22, N-(4-fluoro-3-methylphenyl)-2,3,6-trimethyl-7-methylene-4-oxo-4,5,6,7-tetrahydro-2H-pyrrolo[3,4-c]pyridine-1-carboxamide] | 0.5 to 4.99 | 6.00 to 6.30 |  |  | 
